Measured values taken from PMC7221892, “In Vitro and in Vivo Activity of mTOR Kinase and PI3K Inhibitors Against Leishmania donovani and Trypanosoma brucei” (Molecules, 2020).

Experiments:
[1] = system: intracellular L. donovani; assay: Intracellular L. donovani in THP-1 cells, dose-dilution high-content imaging assay; type: cell-based; conditions: for activity confirmation in dose-dilution assays: intracellular L. donovani EC50 / THP-1 CC50, result in words; for EC50: Leishmania donovani, THP-1 cells infected with L. donovani, 72 h, duplicate measurements, read-out: Intracellular L. donovani EC50 ± SD; for Selectivity Index (SI): SI = THP-1 CC50/Intracellular L. donovani EC50
Procedure: (§1) PMA-treated THP-1 human monocytic cells were seeded at 0.8 × 10^4 cells per well in a 384-well culture plate (Greiner Bio-One, Kremsmünster, Austria) in RPMI-1640 complete medium supplemented with 10% FBS. After 48 h of incubation at 37 °C in the presence of 5% CO2, the promastigotes of L. donovani that were incubated with lectin for 30 min at 28 °C were added to the cells at a parasite to cell ratio of 20:1. […] The negative control consisted of THP-1 infected with the parasite with only 0.5% DMSO. After 72 h, the cells that were infected and treated with the drug were washed with serum-free RPMI-1640 medium. The cells and parasites were stained using 5 μM DRAQ5 and 4% PFA. The images were acquired based on reading using an Operetta® automated microscope (PerkinElmer, Inc., Waltham, MA 02451 USA). They were further analyzed using Columbus^TM (PerkinElmer, Inc. Waltham, MA, USA) software to quantify parasite numbers, host cell numbers, and infection ratios. In brief, large-sized nucleus of host cells was first detected using Draq-5 (Thermo Fisher, Rockford, IL, USA) signal and the host cell boundary masking was performed using the low-intensity signals from cytosols (additional feature of Draq-5). Then the small-sized nucleus signal by Draq-5 was used to identify parasites within the area of masked host cell. Infection ratio (IR) was determined with the value of the number of infected cells divided by total number of cells and the average number of parasites per macrophage (P/φ) was defined by the value of the number of parasites divided by the number of infected cells in the acquired image.
(§2) All of the half maximal effective concentrations (EC50) and the half maximal cytotoxic concentrations (CC50) values were calculated using two independent experiments. The dose-response curves were fitted using GraphPad Prism 6 software (GraphPad Software, San Diego, CA, USA) by using a sigmoidal dose-response equation with a variable hill slope option.

[2] = system: intracellular L. donovani; assay: Pilot high-content screening against intracellular L. donovani at 10 μM; type: cell-based; conditions: screening concentration 10 µM
Procedure: as §1, with “image. The average IR value of the negative control wells was calculated as 0.53. Compounds selected based on the screening results were further assessed in a dose-dilution manner (two-fold serial dilution for 20 points starting from 100 μM) using the same method.” for “image.”

[3] = system: T. b. brucei Lister 427 BSF; assay: T. b. brucei Lister 427 bloodstream form growth inhibition (resazurin); type: cell-based; conditions: Trypanosoma brucei, 72 h, 3 days exposure, read-out: T. brucei Lister 427 BSF EC50 ± SD
Procedure: (§3) L. donovani promastigote and T. b. brucei Lister 427 BSF growth inhibition were assayed by measuring the conversion of resazurin to resorufin. The assays were performed in 384-well plates that were seeded with L. donovani promastigotes or T. brucei 427 BSF (5 × 10^4 cells per well). After seeding, the parasites were exposed to the compounds for 3 days. Resazurin sodium salt (200 μM; R7017; Sigma-Aldrich, St. Louis, MO, USA) was then added, and the samples were incubated for 5 h. After incubation, the parasites were fixed using 4% paraformaldehyde, and the plates were analyzed using a Victor3^TM plate reader (PerkinElmer, Inc., Waltham, MA, USA) at 590 nm (emission) and 530 nm (excitation). […] Pentamidine was used for the T. b. brucei Lister 427 BSF growth inhibition assay.
as §2

[4] = Host cell cytotoxicity (CC50) in infected THP-1 cells, dose-dilution assay; type: cell-based; conditions: human, infected THP-1 host cells, read-out: THP-1 Cell CC50 ± SD
Procedure: as §1, §2

[5] = system: L. donovani promastigotes; assay: L. donovani promastigote growth inhibition (resazurin); type: cell-based; conditions: Leishmania donovani, 72 h, 3 days exposure, read-out: L. donovani Promastigote EC50 ± SD
Procedure: as §3, §2

L. donovani = assay: VL mouse model (L. donovani-infected BALB/c mice); type: in vivo; conditions: miltefosine 30, Torin2 15, dactolisib 50, NVP-BGT226 5 mg/kg; for Inhibition of L. donovani In Vivo (%) (Mean ± SD): liver parasite burden vs vehicle, per os 5 days; for LDU in the Liver (Mean ± SD): once daily per os for 5 days from day 7 post-infection
Procedure: The highest dose for each compound without showing adverse effects was selected based on literature search. The vehicle for the compounds was 5% N-methylpyrrolidone, 15% polyvinylpyrrolidone, and 80% deionized water. Drug dosing solutions were freshly prepared each day. All drugs were administered once daily for 5 days via the per os route. On day 16 post-infection, all animals were humanely euthanized and assessed microscopically using Giemsa-stained liver imprints. Parasite burdens were measured by counting (blinded to treatment) the number of amastigotes per 1000 cell nuclei and multiplying this number by the liver weight (mg) (Leishman-Donovan Unit: LDU). The LDU values for the drug-treated samples were compared to those of the untreated samples, and the percent inhibition values were calculated.

Fc1ccc(C(OCCN2CCN(CCCc3ccccc3)CC2)c2ccc(F)cc2)cc1 [GBR12909]
activity confirmation in dose-dilution assays [1]: either low activity (half maximal effective concentration, EC50) or high toxicity (CC50)

O=S(=O)(NCCNC/C=C/c1ccc(Br)cc1)c1cccc2cnccc12 [H89]
activity confirmation in dose-dilution assays [1]: either low activity (half maximal effective concentration, EC50) or high toxicity (CC50)

COc1ccc(CCCOC(Cn2ccnc2)c2ccc(OC)cc2)cc1 (stereo not drawn) [SKF 96365]
activity confirmation in dose-dilution assays [1]: confirmed to be active

CO[C@H]1C[C@@H]2CC[C@@H](C)[C@@](O)(O2)C(=O)C(=O)N2CCCC[C@H]2C(=O)O[C@H]([C@H](C)C[C@@H]2CC[C@@H](OP(C)(C)=O)[C@H](OC)C2)CC(=O)[C@H](C)/C=C(\C)[C@@H](O)[C@@H](OC)C(=O)[C@H](C)C[C@H](C)/C=C/C=C/C=C/1C [deforolimus]
inhibition of intracellular parasite survival in screening [2]: did not show potent inhibition

CN(C)C/C=C/C(=O)Nc1cc2c(Nc3ccc(F)c(Cl)c3)ncnc2cc1O[C@H]1CCOC1 [afatinib]
activity confirmation in dose-dilution assays [1]: either low activity (half maximal effective concentration, EC50) or high toxicity (CC50)

COc1cc2c(Oc3ccc4[nH]c(C)cc4c3F)ncnc2cc1OCCCN1CCCC1 [cediranib]
activity confirmation in dose-dilution assays [1]: either low activity (half maximal effective concentration, EC50) or high toxicity (CC50)

CO[C@H]1C[C@@H]2CC[C@@H](C)[C@@](O)(O2)C(=O)C(=O)N2CCCC[C@H]2C(=O)O[C@H]([C@H](C)C[C@@H]2CC[C@@H](O)[C@H](OC)C2)CC(=O)[C@H](C)/C=C(\C)[C@@H](O)[C@@H](OC)C(=O)[C@H](C)C[C@H](C)/C=C/C=C/C=C/1C [rapamycin]
inhibition of intracellular parasite survival in screening [2]: did not show potent inhibition

Cc1cc(Nc2cc(N3CCN(C)CC3)nc(/C=C/c3ccccc3)n2)n[nH]1 [ENMD-2076]
activity confirmation in dose-dilution assays [1]: either low activity (half maximal effective concentration, EC50) or high toxicity (CC50)

CNC(=O)Nc1ccc(-c2nc(N3CC4CCC(C3)O4)c3cnn(C4CCC5(CC4)OCCO5)c3n2)cc1 [WYE-125132]
EC50 [3]: 120 ± 10 nM
CC50 at 72 h [4]: 43300 ± 2700 nM
EC50 [5]: 360 ± 40 nM
EC50 [1]: 2260 ± 710 nM
Selectivity Index (SI) [1]: 19

CCCCCCCCCCCCCCCCOP(=O)([O-])OCC[N+](C)(C)C [Miltefosine]
CC50 at 72 h [4]: > 40000 nM
Inhibition of L. donovani In Vivo (%) (Mean ± SD) (L. donovani): 87 ± 2.13%
LDU in the Liver (Mean ± SD) (L. donovani): 142 ± 24 LDU
EC50 [1]: 4810 ± 810 nM

CO[C@H]1C[C@@H]2CC[C@@H](C)[C@@](O)(O2)C(=O)C(=O)N2CCCC[C@H]2C(=O)O[C@H]([C@H](C)C[C@@H]2CC[C@@H](OC(=O)C(C)(CO)CO)[C@H](OC)C2)CC(=O)[C@H](C)/C=C(\C)[C@@H](O)[C@@H](OC)C(=O)[C@H](C)C[C@H](C)/C=C/C=C/C=C/1C [temsirolimus]
inhibition of intracellular parasite survival in screening [2]: did not show potent inhibition

CN1[C@@H]2CC[C@H]1CC(OC(c1ccccc1)c1ccc(Cl)cc1)C2 (stereo partly drawn) [3-CPMT]
activity confirmation in dose-dilution assays [1]: either low activity (half maximal effective concentration, EC50) or high toxicity (CC50)

S=C=Nc1cccc(C2(N3CCCCC3)CCCCC2)c1 [metaphit]
activity confirmation in dose-dilution assays [1]: confirmed to be active

C[C@@H]1[C@H](O)[C@@H](C)/C=C/C=C/C=C/C=C/C=C/C=C/C=C/[C@H](O[C@@H]2O[C@H](C)[C@@H](O)[C@H](N)[C@@H]2O)C[C@@H]2O[C@](O)(C[C@@H](O)C[C@@H](O)[C@H](O)CC[C@@H](O)C[C@@H](O)CC(=O)O[C@H]1C)C[C@H](O)[C@H]2C(=O)O [Amphotericin B]
CC50 at 72 h [4]: > 4000 nM
EC50 [5]: 15 ± 3 nM
EC50 [1]: 340 ± 40 nM
Selectivity Index (SI) [1]: >11.8

CC(C)c1ccc(C(=O)c2cccs2)c(SCCCCCCCCN(C)C)n1 [Y29794]
activity confirmation in dose-dilution assays [1]: confirmed to be active

CCn1nnc2c(N3CCOCC3)nc(-c3ccc(NC(=O)Nc4ccc(C(=O)N5CCN(C)CC5)cc4)cc3)nc21 [PKI-402]
EC50 [3]: 260 ± 20 nM
CC50 at 72 h [4]: 28500 ± 1200 nM
EC50 [5]: 490 ± 220 nM
EC50 [1]: 13400 ± 2350 nM
Selectivity Index (SI) [1]: 2.1

CO[C@H]1C[C@@H]2CC[C@@H](C)[C@@](O)(O2)C(=O)C(=O)N2CCCC[C@H]2C(=O)O[C@H]([C@H](C)C[C@@H]2CC[C@@H](OCCO)[C@H](OC)C2)CC(=O)[C@H](C)/C=C(\C)[C@@H](O)[C@@H](OC)C(=O)[C@H](C)C[C@H](C)/C=C/C=C/C=C/1C [everolimus]
inhibition of intracellular parasite survival in screening [2]: did not show potent inhibition

COc1ccccc1C1(O)CCN(CCCn2c3ccccc3c3ccccc32)CC1 [NNC05–2090]
activity confirmation in dose-dilution assays [1]: confirmed to be active

CC(C)n1nc(-c2ccc3oc(N)nc3c2)c2c(N)ncnc21 [Sapanisertib]
EC50 [3]: 5340 ± 980 nM
CC50 at 72 h [4]: > 100000 nM
EC50 [5]: 7460 ± 1040 nM
EC50 [1]: 6390 ± 1120 nM

Cn1c(=O)n(-c2ccc(C(C)(C)C#N)cc2)c2c3cc(-c4cnc5ccccc5c4)ccc3ncc21 [Dactolisib (NVP-BEZ235)]
inhibition of intracellular parasite survival in screening [2]: found active
EC50 [3]: 120 ± 10 nM
CC50 at 72 h [4]: > 100000 nM
EC50 [5]: 380 ± 60 nM
Inhibition of L. donovani In Vivo (%) (Mean ± SD) (L. donovani): 53 ± 9.50%
Inhibition of L. donovani In Vivo (%) (Mean ± SD) (L. donovani; listed as dactolisib): 53%
LDU in the Liver (Mean ± SD) (L. donovani): 527 ± 108 LDU
EC50 [1]: 360 ± 70 nM
Selectivity Index (SI) [1]: ≥277.8

[O-][S+](c1ccccc1)c1ccc2nnnn2n1 (stereo not drawn) [Ro 106–9920]
activity confirmation in dose-dilution assays [1]: confirmed to be active

N=C(N)c1ccc(OCCCCCOc2ccc(C(=N)N)cc2)cc1 [Pentamidine]
EC50 [3]: 150 ± 10 nM

CC[C@H](Nc1ncnc2[nH]cnc12)c1nc2cccc(F)c2c(=O)n1-c1ccccc1 [CAL-101]
inhibition of intracellular parasite survival in screening [2]: no direct effects on the parasite
